According to PubChem BioAssay AID2060885 (Molecular Pharmacology Branch, DTP, NCI, 2025):

Tested on: NCI-H23 complex spheroids with HUVEC/MSC, viability
Experiment: Anticancer human tumor NCI-H23 cell line growth inhibition [RAS];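 further: spheroids exposed to compound for 7 days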;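 on viability, T/C: 100% = DMSO vehicle control viability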
Details: for IC50: curve of first compound; for viability, T/C: stronger effect = lower value
Outline: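 Tumour cells grown as complex spheroids with HUVEC endothelial cells and mesenchymal stem cells, treated with RAS pathway inhibitor combinations. Each agent spans half-log steps from near clinical Cmax, or 10 microM where Cmax is unknown.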

CC(C)n1nc(-c2ccc3oc(N)nc3c2)c2c(N)ncnc21 + CCn1c(-c2cccnc2C(C)OC)c2c3cc(ccc31)N1CCOC(CC(NC(=O)C(C(C)C)N(C)C(=O)C3(F)CCN(C(=O)C#CC(C)(C)N(C)C)CC3)C(=O)N3CCCC(N3)C(=O)OCC(C)(C)C2)C1
IC50 (second compound 0.000949 µM): < 0.316 nM
IC50 (second compound 0.003 µM): < 0.316 nM
IC50 (second compound 0.00949 µM): < 0.316 nM
IC50 (second compound 0.03 µM): < 0.316 nM
IC50 (second compound 0.0949 µM): < 0.316 nM
IC50 (second compound 0.3 µM): < 0.316 nM
viability, T/C (second compound 0.000949 µM, first compound 0.000316 µM): 33.1%
viability, T/C (second compound 0.000949 µM, first compound 0.001 µM): 33.1%
viability, T/C (second compound 0.000949 µM, first compound 0.00316 µM): 22%
viability, T/C (second compound 0.000949 µM, first compound 0.01 µM): 18.4%
viability, T/C (second compound 0.000949 µM, first compound 0.0316 µM): 16.5%
viability, T/C (second compound 0.000949 µM, first compound 0.1 µM): 8.34%
viability, T/C (second compound 0.003 µM, first compound 0.000316 µM): 30.4%
viability, T/C (second compound 0.003 µM, first compound 0.001 µM): 25%
viability, T/C (second compound 0.003 µM, first compound 0.00316 µM): 20.8%
viability, T/C (second compound 0.003 µM, first compound 0.01 µM): 18.1%
viability, T/C (second compound 0.003 µM, first compound 0.0316 µM): 12.2%
viability, T/C (second compound 0.003 µM, first compound 0.1 µM): 8.88%
viability, T/C (second compound 0.00949 µM, first compound 0.000316 µM): 28%
viability, T/C (second compound 0.00949 µM, first compound 0.001 µM): 24.2%
viability, T/C (second compound 0.00949 µM, first compound 0.00316 µM): 22.4%
viability, T/C (second compound 0.00949 µM, first compound 0.01 µM): 17.7%
viability, T/C (second compound 0.00949 µM, first compound 0.0316 µM): 12%
viability, T/C (second compound 0.00949 µM, first compound 0.1 µM): 9.44%
viability, T/C (second compound 0.03 µM, first compound 0.000316 µM): 26.2%
viability, T/C (second compound 0.03 µM, first compound 0.001 µM): 24.5%
viability, T/C (second compound 0.03 µM, first compound 0.00316 µM): 20.3%
viability, T/C (second compound 0.03 µM, first compound 0.01 µM): 18.6%
viability, T/C (second compound 0.03 µM, first compound 0.0316 µM): 10.4%
viability, T/C (second compound 0.03 µM, first compound 0.1 µM): 9.27%
viability, T/C (second compound 0.0949 µM, first compound 0.000316 µM): 27.5%
viability, T/C (second compound 0.0949 µM, first compound 0.001 µM): 25.4%
viability, T/C (second compound 0.0949 µM, first compound 0.00316 µM): 24.9%
viability, T/C (second compound 0.0949 µM, first compound 0.01 µM): 15.9%
viability, T/C (second compound 0.0949 µM, first compound 0.0316 µM): 9.52%
viability, T/C (second compound 0.0949 µM, first compound 0.1 µM): 10.3%
viability, T/C (second compound 0.3 µM, first compound 0.000316 µM): 24.9%
viability, T/C (second compound 0.3 µM, first compound 0.001 µM): 21.9%
viability, T/C (second compound 0.3 µM, first compound 0.00316 µM): 22.9%
viability, T/C (second compound 0.3 µM, first compound 0.01 µM): 16.1%
viability, T/C (second compound 0.3 µM, first compound 0.0316 µM): 10.5%
viability, T/C (second compound 0.3 µM, first compound 0.1 µM): 9.53%
